The source of these data is ChEMBL document CHEMBL5608163, “Structure modification of anoplin for fighting resistant bacteria” (Eur J Med Chem, 2024).

Series [1] relates to Bacillus subtilis. The series can be described thus: Antibacterial activity against Bacillus subtilis ATCC 23857 assessed as reduction in bacterial growth incubated for 18 hrs by CLSI-based Mueller-Hinton broth dilution method. Format: functional. On the technique in general: Dilution methods test growth across graded concentrations, often in twofold steps.
Series [2] relates to Staphylococcus aureus. The series can be described thus: Antimicrobial activity against Staphylococcus aureus ATCC 25923 assessed as reduction in microbial growth incubated for 18 hrs by CLSI-based Mueller-Hinton broth dilution method. Type of series: functional.
In series [3] the test system is Staphylococcus epidermidis. The series can be described thus: Antibacterial activity against Staphylococcus epidermidis ATCC 12228 assessed as reduction in bacterial growth incubated for 18 hrs by CLSI-based Mueller-Hinton broth dilution method. Format: functional.
Series [4] has as its system Escherichia coli. Kind of series: Antibacterial activity against Escherichia coli ML-35 ATCC 43837 assessed as reduction in bacterial growth incubated for 18 hrs by CLSI-based Mueller-Hinton broth dilution method. Type of series: functional.
Series [5] has as its system Pseudomonas aeruginosa. The series can be described thus: Antibacterial activity against Pseudomonas aeruginosa ATCC 27853 assessed as reduction in bacterial growth incubated for 18 hrs by CLSI-based Mueller-Hinton broth dilution method. Type of series: functional.
Series [6] concerns Acinetobacter baumannii. The series can be described thus: Antibacterial activity against Acinetobacter baumannii ATCC 19606 assessed as reduction in bacterial growth incubated for 18 hrs by CLSI-based Mueller-Hinton broth dilution method. Format: functional.
Series [7] concerns Klebsiella pneumoniae. Kind of series: Antibacterial activity against Klebsiella pneumoniae ATCC 700603 assessed as reduction in bacterial growth incubated for 18 hrs by CLSI-based Mueller-Hinton broth dilution method. Format: functional.
The subject of series [8] is Erythrocyte. Kind of series: Hemolytic activity in mouse erythrocyte assessed as hemolysis incubated for 1 hr by microplate reader analysis. Type of series: toxicity, cell-based.
Series [9] concerns Escherichia coli. The series can be described thus: Antibacterial activity against Escherichia coli ATCC 25922 assessed as reduction in microbial growth incubated for 16 to 20 hrs by CLSI protocol based Muller Hinton broth assay. Type of series: functional. The settings on record: time 16-20 hrs.
The test system of series [10] is Enterococcus faecium. Kind of series: Antibacterial activity against vancomycin resistant Enterococcus faecium ATCC 700221 assessed as inhibition of bacterial growth incubated for 48 hrs by CLSI-based broth microdilution assay. Type of series: functional.
Series [11] concerns Pseudomonas aeruginosa. Kind of series: Antibacterial activity against Pseudomonas aeruginosa ATCC 27853 assessed as reduction in microbial growth incubated for 16 to 20 hrs by CLSI protocol based Muller Hinton broth assay. The conditions noted are these: time 16-20 hrs. Type of series: functional.
Series [12] in a line: Hemolytic activity in human RBC assessed as hemolysis measured after 24 hrs. Type of series: toxicity, cell-based, Erythrocyte. The settings on record: red blood cells.
Series [13] deals with Staphylococcus aureus. The series can be described thus: Antibacterial activity against methicillin-resistant Staphylococcus aureus ATCC 33591 assessed as reduction in bacterial growth incubated for 18 hrs by agar dilution method. Format: functional. On the technique in general: In agar dilution the substance is mixed into plates at graded concentrations.

≈ marks a conversion by molar mass, not a printed value. Square brackets hold non-standard residues; d marks the D form. Peptide text beside a SMILES is read from it. 2Nal = N[C@@H](Cc1ccc2ccccc2c1)C(=O)O; hIle = CC[C@H](C)C[C@H](N)C(=O)O; Cha = N[C@@H](CC1CCCCC1)C(=O)O Some results are limits rather than exact numbers.

Usually MIC stands for the lowest concentration found to suppress growth. As for `CCCCCCCCC(=O)NCCCC[C@@H](NC(=O)[C@@H](NC(=O)[C@H](CCCNC(=N)N)NC(=O)[C@@H](CCCCN)NC(=O)[C@H](CC(C)C)NC(=O)[C@H](CC(C)C)NC(=O)CN)[C@@H](C)CC)C(=O)N[C@H](C(=O)N[C@@H](CC(C)C)C(=O)N[C@@H](CC(C)C)C(N)=O)[C@@H](C)O`, the MIC in series [1] was determined as 2 µM (≈ 2.59 µg/mL); in [2], 8 µM; in [3], 4 µM (≈ 5.18 µg/mL); in [4], 4 µM (≈ 5.18 µg/mL); in series [5], 16 µM (≈ 20.7 µg/mL); in series [6], 8 µM (≈ 10.4 µg/mL). For the same molecule, the minimum inhibitory concentration (MIC) in series [7] came to 32 µM (≈ 41.4 µg/mL). Also, the HC10 in series [8] worked out at 256 µM.
Regarding `CCCCCCCCCCC(=O)NCCCC[C@@H](NC(=O)[C@@H](NC(=O)[C@H](CCCNC(=N)N)NC(=O)[C@@H](CCCCN)NC(=O)[C@H](CC(C)C)NC(=O)[C@H](CC(C)C)NC(=O)CN)[C@@H](C)CC)C(=O)N[C@H](C(=O)N[C@@H](CC(C)C)C(=O)N[C@@H](CC(C)C)C(N)=O)[C@@H](C)O`, the minimal inhibitory concentration (MIC) amounted to 2 µM (≈ 2.64 µg/mL) in series [1]; 8 µM in series [2]; 4 µM (≈ 5.29 µg/mL) in [3]; 4 µM (≈ 5.29 µg/mL) in series [4]; 4 µM (≈ 5.29 µg/mL) in series [5]; 4 µM (≈ 5.29 µg/mL) in [6]. Besides, the MIC in [7] turned out to be 8 µM (≈ 10.6 µg/mL). The HC10 in series [8] is 128 µM.
For `CCCCC(=O)NCCCC[C@@H](NC(=O)[C@@H](NC(=O)[C@H](CCCNC(=N)N)NC(=O)[C@@H](CCCCN)NC(=O)[C@H](CC(C)C)NC(=O)[C@H](CC(C)C)NC(=O)CN)[C@@H](C)CC)C(=O)N[C@H](C(=O)N[C@@H](CC(C)C)C(=O)N[C@@H](CC(C)C)C(N)=O)[C@@H](C)O`, the MIC in series [1] was 64 µM (≈ 79.2 µg/mL); in series [2] it was above 128 µM; in series [3], 128 µM (≈ 158 µg/mL); in [4] it was 128 µM (≈ 158 µg/mL); in series [5], 64 µM (≈ 79.2 µg/mL); in series [6], above 128 µM. In addition, the MIC in [7] is above 128 µM. Moreover, in series [8], the HC10 was above 256 µM.
For the molecule `CCCCCCC(=O)NCCCC[C@@H](NC(=O)[C@@H](NC(=O)[C@H](CCCNC(=N)N)NC(=O)[C@@H](CCCCN)NC(=O)[C@H](CC(C)C)NC(=O)[C@H](CC(C)C)NC(=O)CN)[C@@H](C)CC)C(=O)N[C@H](C(=O)N[C@@H](CC(C)C)C(=O)N[C@@H](CC(C)C)C(N)=O)[C@@H](C)O`, the minimum inhibitory concentration (MIC) in series [1] was found to be 8 µM (≈ 10.1 µg/mL); in series [2], 128 µM; in series [3] it was 16 µM (≈ 20.3 µg/mL); in [4] it was 32 µM (≈ 40.5 µg/mL); in series [5], 32 µM (≈ 40.5 µg/mL); in [6], 32 µM (≈ 40.5 µg/mL). For the same molecule, the minimal inhibitory concentration (MIC) in series [7] stood at 128 µM (≈ 162 µg/mL). In addition, the HC10 in [8] was 256 µM.
In the case of `CCCCCCCCCCCCCCCCC(=O)NCCCC[C@@H](NC(=O)[C@@H](NC(=O)[C@H](CCCNC(=N)N)NC(=O)[C@@H](CCCCN)NC(=O)[C@H](CC(C)C)NC(=O)[C@H](CC(C)C)NC(=O)CN)[C@@H](C)CC)C(=O)N[C@H](C(=O)N[C@@H](CC(C)C)C(=O)N[C@@H](CC(C)C)C(N)=O)[C@@H](C)O`, the MIC in series [1] was found to be 16 µM (≈ 22.5 µg/mL); in [2] it was 64 µM; in series [3], 32 µM (≈ 45 µg/mL); in series [4], 64 µM (≈ 90 µg/mL); in [5] it was 64 µM (≈ 90 µg/mL); in series [6], 16 µM (≈ 22.5 µg/mL). Besides, the MIC in [7] was determined as 64 µM (≈ 90 µg/mL). Moreover, the HC10 in series [8] came to 16 µM.
Consider `CCCCCCCCCCCCCCC(=O)NCCCC[C@@H](NC(=O)[C@@H](NC(=O)[C@H](CCCNC(=N)N)NC(=O)[C@@H](CCCCN)NC(=O)[C@H](CC(C)C)NC(=O)[C@H](CC(C)C)NC(=O)CN)[C@@H](C)CC)C(=O)N[C@H](C(=O)N[C@@H](CC(C)C)C(=O)N[C@@H](CC(C)C)C(N)=O)[C@@H](C)O`, for which the MIC is 8 µM (≈ 11 µg/mL) in series [1]; 16 µM in series [2]; 4 µM (≈ 5.51 µg/mL) in [3]; 64 µM (≈ 88.2 µg/mL) in series [4]; 32 µM (≈ 44.1 µg/mL) in series [5]; 8 µM (≈ 11 µg/mL) in [6]. The MIC in series [7] stood at 32 µM (≈ 44.1 µg/mL). The HC10 in [8] amounted to 16 µM.
Take `CCCCCCCCCCCCCCCCC(=O)NCCCC[C@@H](NC(=O)[C@H](CC(C)C)NC(=O)[C@H](CC(C)C)NC(=O)CN)C(=O)N[C@@H](CCCNC(=N)N)C(=O)N[C@H](C(=O)N[C@H](CCCCN)C(=O)N[C@H](C(=O)N[C@@H](CC(C)C)C(=O)N[C@@H](CC(C)C)C(N)=O)[C@@H](C)O)[C@@H](C)CC`: the MIC in series [1] was found to be 8 µM (≈ 11.2 µg/mL); in series [2], 32 µM; in series [3], 64 µM (≈ 90 µg/mL); in series [4] it was 64 µM (≈ 90 µg/mL); in series [5] it was 64 µM (≈ 90 µg/mL); in series [6], 16 µM (≈ 22.5 µg/mL). Further, the minimal inhibitory concentration (MIC) in series [7] amounted to 128 µM (≈ 180 µg/mL). Moreover, the HC10 in series [8] is above 16 µM.
`CCCCCCCCCCCCC(=O)NCCCC[C@@H](NC(=O)[C@@H](NC(=O)[C@H](CCCNC(=N)N)NC(=O)[C@@H](CCCCN)NC(=O)[C@H](CC(C)C)NC(=O)[C@H](CC(C)C)NC(=O)CN)[C@@H](C)CC)C(=O)N[C@H](C(=O)N[C@@H](CC(C)C)C(=O)N[C@@H](CC(C)C)C(N)=O)[C@@H](C)O`: the minimum inhibitory concentration (MIC) in series [1] stood at 2 µM (≈ 2.7 µg/mL); in series [2], 4 µM; in series [3], 4 µM (≈ 5.4 µg/mL); in [4], 16 µM (≈ 21.6 µg/mL); in series [5], 8 µM (≈ 10.8 µg/mL); in series [6], 4 µM (≈ 5.4 µg/mL). The minimal inhibitory concentration (MIC) in [7] was found to be 16 µM (≈ 21.6 µg/mL). For the same molecule, in series [8], the HC10 worked out at 32 µM.
Broadly, the HC50 is the concentration that lyses half of the red blood cells. With `CC[C@H](C)[C@H](NC(=O)[C@H](Cc1ccccc1)NC(=O)[C@H](CCCCN)NC(=O)[C@H](CC(C)C)NC(=O)[C@H](CC(C)C)NC(=O)CN)C(=O)N[C@@H](CCCCN)C(=O)N[C@@H](Cc1c[nH]c2ccccc12)C(=O)N[C@@H](CC(C)C)C(=O)N[C@@H](CC(C)C)C(N)=O` (H-GLLKFIKWLL-NH2), the minimum inhibitory concentration (MIC) came out at 22.1 µM in series [9], 0.8 µM (≈ 0.984 µg/mL) in series [10], 256 µM in series [11] and 7.4 µM (≈ 9.1 µg/mL) in series [13]. Moreover, the HC50 at 24 h in series [12] worked out at 0.6 µM.
`CC(C)C[C@H](NC(=O)[C@H](CC(C)C)NC(=O)[C@@H](NC(=O)[C@H](CCCCN)NC(=O)[C@H](Cc1ccc2ccccc2c1)NC(=O)[C@H](CCCNC(=N)N)NC(=O)[C@H](CCCCN)NC(=O)[C@H](CC(C)C)NC(=O)[C@H](CC(C)C)NC(=O)CN)[C@@H](C)O)C(N)=O` (H-GLLKR[2Nal]KTLL-NH2): the MIC in series [9] turned out to be 28.4 µM; in series [10] it was 28.4 µM (≈ 35.1 µg/mL); in series [11] it was 28.4 µM; in [13], 85.3 µM (≈ 106 µg/mL). Also, the concentration for 50% haemolysis (HC50) at 24 h in [12] was above 500 µM.
Regarding `CC(C)C[C@H](NC(=O)[C@H](CC(C)C)NC(=O)[C@@H](NC(=O)[C@H](CCCCN)NC(=O)[C@H](CC1CCCCC1)NC(=O)[C@H](CCCNC(=N)N)NC(=O)[C@H](CCCCN)NC(=O)[C@H](CC(C)C)NC(=O)[C@H](CC(C)C)NC(=O)CN)[C@@H](C)O)C(N)=O` (H-GLLKR[Cha]KTLL-NH2), the minimal inhibitory concentration (MIC) in series [9] was 28.4 µM; in [10] it was 6 µM (≈ 7.16 µg/mL); in [11] it was 15.8 µM; in series [13] it was 28.4 µM (≈ 33.9 µg/mL). In series [12], the concentration for 50% haemolysis (HC50) at 24 h stood at 304 µM.
Regarding `CC[C@H](C)C[C@H](NC(=O)[C@H](CCCNC(=N)N)NC(=O)[C@H](CCCCN)NC(=O)[C@H](CC(C)C)NC(=O)[C@H](CC(C)C)NC(=O)CN)C(=O)N[C@@H](CCCCN)C(=O)N[C@H](C(=O)N[C@@H](CC(C)C)C(=O)N[C@@H](Cc1ccc2ccccc2c1)C(N)=O)[C@@H](C)O` (H-GLLKR[hIle]KTL[2Nal]-NH2), the minimum inhibitory concentration (MIC) was determined as 22.1 µM in series [9], 9.5 µM (≈ 11.9 µg/mL) in series [10], 9.5 µM in [11] and 28.4 µM (≈ 35.5 µg/mL) in series [13]. For the same molecule, the 50% haemolytic concentration (HC50) at 24 h in series [12] was found to be 18 µM.
